# Experiments:
# NQO1 = NQO1 assay in Hepa1c1c7 cells; type: cell-based, mouse; details: approximately 48 hours culture, mean of 3 wells
# Procedure: Hepa1c1c7 cells (mouse hepatic cell line, ATCC, catalog No. CRL-2026) were cultured (5% CO2, 37° C.). A DMEM (Life Technologies Japan Ltd., catalog No. 11965-092) medium also containing 10% inactivated FBS was used. The medium contained 100 units/mL (final concentration) penicillin and […] (final concentration) streptomycin. The NQO1 assay was conducted according to previous reports (Anal Biochem 1998; 169: 328; and Methods Enzymol 2004; 382: 243).
# The Hepa1c1c7 cells were seeded at 10000 cells/well in a 96-well plate. Approximately 24 hours later, the medium was replaced with a medium containing terpenoid derivative (III), terpenoid derivative (I), or terpenoid derivative (II), and the culture was further performed for approximately 48 hours. A lysis solution (a solution containing 2 mM EDTA and 0.8% digitonin), a reaction solution (a solution containing 0.025 M of tris-HCl, 0.067% of albumin, 0.01% of Tween-20, 2 U/mL of glucose-6-phosphate dehydrogenase, 5 μM of flavin adenine dinucleotide, 1 […], 30 μM of nicotinamide adenine dinucleotide phosphate, 0.03% of 3-(4, 5-dimethyl-2-thiazolyl)-2,5-diphenyltetrazolium bromide (MTT), and 50 μM of menadione), and a stop solution (a solution containing 0.3 mM dicumarol and 5 mM potassium dihydrogen phosphate, pH 7.4) were prepared. After removal of the medium, 50 μL of the lysis solution was added thereto, and the mixture was left standing at 37° C. for 10 minutes. The reaction mixture was further shaken at room temperature for 10 minutes.
# Two hundred uL of the solution was added thereto, and the mixture was left standing at room temperature for 5 minutes. Fifty μL of the stop solution was added thereto, and the absorbance at 490 nm was measured.
# The test results were analyzed using Prism (GraphPad Software, Inc., Ver. 5) to calculate the CD value (concentration of double NQO1 activity) of the concentration at which the activity of NQO1 was increased 2-fold. Each group consisted of 3 wells and indicated as a mean of CD values. […]
# [1] = Pharmacokinetic test of microspheres containing terpenoid derivative (III) in rabbit eye; type: in vivo; details: male, Kbl:NZW (white rabbit), intravitreal fluid, other: intravitreal, mean of 4 eyes and SD
# Procedure: Suspensions were prepared using each of terpenoid derivative (III) of the present invention, terpenoid derivative (III) of the present invention-PLA-0005 [prepared by using PLA-0005 as the base material and adjusting the mixing ratio of terpenoid derivative (III) of the present invention and PLA-0005 to 1:9], and terpenoid derivative (III) of the present invention-PLA-0020 [prepared by using PLA-0020 as the base material and adjusting the mixing ratio of terpenoid derivative (III) of the present invention and PLA-0020 to 1:9], and saline as a solvent such that the concentration of terpenoid derivative (III) was 3 mM.
# 50 μL each of the suspensions was intravitreally administered to each white rabbit (Oriental Yeast Co., Ltd., Kbl:NZW, male, 8 weeks old). After the intravitreal administration, the rabbit was euthanized, and the intravitreal fluid and the retina were sampled. The concentration of terpenoid derivative (III) contained in these samples was measured. The numeric values shown in Table 12 below are indicated by a mean from 4 eyes and standard deviation. The drug concentration in each tissue was measured by LC/MS/MS. The tissue was pretreated by dilution with purified water in an amount corresponding to 10 times the weight of the tissue and subsequent homogenization to obtain a measurement sample. A water/acetonitrile (1:1) solution containing an internal standard solution (IS; niflumic acid) was added to the obtained sample to extract the drug. Then, the solution was filtered through a filter and injected to LC/MS/MS.
# The LC/MS/MS conditions were as follows: • <UPLC conditions>: Waters Acquity UPLC • analysis column: ACQUITY UPLC BEH C18 1.7 μm • column temperature: 50° C. • mobile phase A: 95% acetonitrile (5 mM ammonium acetate) • mobile phase B: 5% acetonitrile (5 mM ammonium acetate).
# • <MS/MS conditions>: analysis apparatus API4000 • Ionization mode: ESI • Ion polarity mode: Positive • Monitor Ion • terpenoid derivative (III) (Precursor ion (m/z): 538.5, Product ion (m/z): 460) • IS (Precursor ion (m/z): 283.2, Product ion (m/z): 265).
"concentration at 1 day ([1]; Day 1, intravitreal 50 μL of 3 mM suspension) [nM]","concentration at 2 day ([1]; Day 2, intravitreal 50 μL of 3 mM suspension) [nM]","concentration at 7 day ([1]; Day 7, intravitreal 50 μL of 3 mM suspension) [nM]",SMILES,CD value (concentration of double NQO1 activity) (NQO1) [nM]
–,–,–,COC(=O)[C@@]12CC[C@]3(C)[C@H](C(=O)C=C4[C@@]5(C)[C@H]6O[C@@]6(C#N)C(=O)C(C)(C)[C@@H]5CC[C@]43C)[C@@H]1CC(C)(C)[C@H](O)C2 [terpenoid derivative (II)],0.1
–,–,–,COC(=O)[C@@]12CC[C@]3(C)[C@H](C(=O)C=C4[C@@]5(C)C=C(C#N)C(=O)C(C)(C)[C@@H]5CC[C@]43C)[C@@H]1CC(C)(C)[C@@H](O)C2 [terpenoid derivative (I)],0.3
79700 ± 22100,0.1,0.1,COC(=O)[C@@]12CC[C@]3(C)[C@H](C(=O)C=C4[C@@]5(C)[C@H]6O[C@@]6(C#N)C(=O)C(C)(C)[C@@H]5CC[C@]43C)[C@@H]1CC(C)(C)[C@@H](O)C2 [terpenoid derivative (III)],1.0
